From patent US20260217686A1, “N-Myristoyltransferase Inhibitors And Methods Of Use” (Seattle Children's Hospital (d/b/a Seattle Children's …, priority 2022, published 2026)

How the values were obtained:
PvNMT = biological target: T1, PvNMT (Plasmodium vivax, UniProt A5K1A2); test: biochemical; type: biochemical; conditions: for SI**: enzyme selectivity calculated as HsNMT IC50/PvNMT IC50
T1 construct: Gly-Pro stays on the protein after cleavage) (N, cleaved yes); host or cells: E. coli Rosetta 2 (DE3) pRARE
Source text: NMT activity was indirectly measured through the detection of free CoA by the thiol-reactive probe 7-diethylamino-3-(4′-maleimidylphenyl)-4-methylcoumarin (CPM).
This study aimed to identify NMT is with high selectivity for the P. vivax enzyme compared with human NMTs and high potency against the different stages of the P. vivax parasite. For this purpose, a structure-guided approach was applied using previously reported NMT inhibitors as scaffolds to develop a new generation of PvNMT-targeting compounds. The NMT activity of these inhibitors was first measured using biochemical assays through the detection of free CoA by the thiol-reactive probe 7-diethylamino-3-(4′-maleimidylphenyl)-4-methylcoumarin (CPM). Their antiparasitic activity were further evaluated by measuring blood-stage parasite load and inhibition of P. vivax liver-stage schizont and hypnozoite infection. […] Cytotoxicity was assessed in the human hepatoma HepG2 cell line. Synchronized P. falciparum NF54 ring-stage parasites were used for measuring blood-stage parasite load. […] In vitro experiments were repeated at least twice. A single concentration of each inhibitor was initially used to evaluate the inhibition of P. vivax liver stage schizont and hypnozoite infection, followed by the determination of the dose-response relationship.
To measure the activity of the purified PvNMT an assay was adapted from the literature. […] Working stock solutions were made fresh adding DMSO for final concentrations of either 1% or 5% DMSO. […] The plate was incubated for 30 min at room temperature. The enzymatic reaction was initiated by adding 50 μL of reaction substrate containing 10 µM myrCoA and PfARF, as well as 8 μM CPM. Fluorescent readings were taken on a Spectra M2 plate reader (Molecular Devices) with excitation at 385 nm and emission at 485 nm. Fluorescent intensity was measured continuously in one-minute intervals for 45 minutes. Background fluorescence and noise were determined by replacing each constituent of the reaction individually with assay buffer containing 1% DMSO and values were deducted from experimental samples. The enzymatic reactions were set up with varying pHs (6.0-8.5) of the assay buffer to determine optimal reaction conditions with minimal background and off target reactions. In lieu of compound, 10 μL of 10% DMSO/H2O was added to each well. Fluorescence signal was obtained continuously for 45 min. […] IC50 calculations were calculated using Prism (GraphPad Software, Inc).

HsNMT1 = biological target: T2, HsNMT1 (Homo sapiens, UniProt P30419); test: NMT activity assay (CPM detection of free CoA), human NMT; type: biochemical; conditions: Table 1; mean values of two or more determinations; read-out: HsNMT IC50 (nM)*
T2 construct: made in house
T2 sequence (P30419 1-496): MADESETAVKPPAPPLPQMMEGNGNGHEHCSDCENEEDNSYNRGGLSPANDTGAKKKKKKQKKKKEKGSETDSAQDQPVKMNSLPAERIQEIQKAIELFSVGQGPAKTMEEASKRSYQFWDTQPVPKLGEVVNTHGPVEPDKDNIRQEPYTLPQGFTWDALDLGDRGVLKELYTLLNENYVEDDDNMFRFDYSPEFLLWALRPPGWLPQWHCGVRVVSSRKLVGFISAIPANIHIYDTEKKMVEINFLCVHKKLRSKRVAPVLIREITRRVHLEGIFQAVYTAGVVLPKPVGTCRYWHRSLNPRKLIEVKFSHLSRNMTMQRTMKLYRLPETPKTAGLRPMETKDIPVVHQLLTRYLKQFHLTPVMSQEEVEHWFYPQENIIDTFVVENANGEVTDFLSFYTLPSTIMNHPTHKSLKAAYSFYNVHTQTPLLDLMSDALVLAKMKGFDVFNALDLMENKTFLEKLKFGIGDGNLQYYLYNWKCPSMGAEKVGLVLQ

[1] = Table 1, mean values of two or more determinations

T1 sequence (A5K1A2 entry or part of it): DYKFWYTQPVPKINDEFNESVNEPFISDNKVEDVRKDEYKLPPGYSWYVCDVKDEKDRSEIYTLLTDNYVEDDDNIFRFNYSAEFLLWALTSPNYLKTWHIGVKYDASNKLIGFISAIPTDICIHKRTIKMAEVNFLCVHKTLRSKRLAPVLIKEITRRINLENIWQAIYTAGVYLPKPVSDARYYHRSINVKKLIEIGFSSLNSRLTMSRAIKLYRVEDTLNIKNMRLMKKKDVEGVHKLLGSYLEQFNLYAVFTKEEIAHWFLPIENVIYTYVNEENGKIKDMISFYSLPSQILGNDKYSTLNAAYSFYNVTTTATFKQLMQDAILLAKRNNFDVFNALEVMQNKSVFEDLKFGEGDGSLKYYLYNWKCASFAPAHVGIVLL

Compound | SI** (PvNMT; Table 1) | IC50 (PvNMT; [1]) [nM] | IC50 (HsNMT1) [nM] | selectivity index (SI) (PvNMT; ratio of IC50 values for HsNMT1 and PvNMT) | IC50 (PvNMT; Table 2) [nM]
3-(2′-(3,5-dimethyl-1H-pyrazol-4-yl)ethoxy-4′-fluoro-[1,1′-biphenyl]-3-yl)piperazine [Compound 12p] | 62.7 | 368 | 23100 |  | 
Cc1nn(C)c(C)c1CCOc1cccnc1-c1ccnc(N2CCNCC2)c1 [Compound 12a, 2′-(piperazin-1-yl)-3-(2-(1,3,5-trimethyl-1H-pyrazol-4-yl)ethoxy)-2,4′-bipyridine] | 146.7 | 36.8 | 5400 |  | 
Cc1nn(C)c(C)c1CCOc1cccnc1-c1cccc(N2CCNCC2)c1 [Compound 12b, 1-(3-(3-(2-(1,3,5-trimethyl-1H-pyrazol-4-yl)ethoxy)pyridin-2-yl)phenyl)piperazine] |  | 80.2 | 20800 |  | 
Cc1nn(C)c(C)c1CCOc1ccccc1-c1ccnc(N2CCNCC2)c1 [Compound 12c, 1-(4-(2-(2-(1,3,5-trimethyl-1H-pyrazol-4-yl)ethoxy)phenyl)pyridin-2-yl)piperazine] | 63.1 | 9.48 | 599 |  | 
Cc1nn(C)c(C)c1CCOc1ccccc1-c1cccc(N2CCNCC2)c1 [Compound 12d, 1-(2′-(2-(1,3,5-trimethyl-1H-pyrazol-4-yl)ethoxy)-[1,1′-biphenyl]-3-yl)piperazine] | 153.4 | 48.5 | 7440 |  | 
Cc1nn(C)c(C)c1CCOc1cc(F)ccc1-c1ccnc(N2CCNCC2)c1 [Compound 12e, 1-(4-(4-fluoro-2-(2-(1,3,5-trimethyl-1H-pyrazol-4-yl)ethoxy)phenyl)pyridin-2-yl)piperazine] | 7.8 | 15.8 | 124 |  | 
Cc1nn(C)c(C)c1CCOc1cc(F)ccc1-c1cccc(N2CCNCC2)c1 [Compound 12f, 1-(4′-fluoro-2′-(2-(1,3,5-trimethyl-1H-pyrazol-4-yl)ethoxy)-[1,1′-biphenyl]-3-yl)piperazine] | 43.9 | 15.9 | 699 |  | 
c1cncc(CCOc2cccnc2-c2cccc(N3CCNCC3)c2)c1 [Compound 12g, 1-(3-(3-(2-(pyridin-3-yl)ethoxy)pyridin-2-yl)phenyl)piperazine] | 152.8 | 104 | 15900 |  | 
c1cncc(CCOc2cccnc2-c2ccnc(N3CCNCC3)c2)c1 [Compound 12h, 2′-(piperazin-1-yl)-3-(2-(pyridin-3-yl)ethoxy)-2,4′-bipyridine] | 90.9 | 441 | > 40000 |  | 
c1cncc(CCOc2ccccc2-c2cccc(N3CCNCC3)c2)c1 [Compound 12i, 1-(2′-(2-(pyridin-3-yl)ethoxy)-[1,1′-biphenyl]-3-yl)piperazine] |  | 1540 |  |  | 
c1cncc(CCOc2ccccc2-c2ccnc(N3CCNCC3)c2)c1 [Compound 12j, 1-(4-(2-(2-(pyridin-3-yl)ethoxy)phenyl)pyridin-2-yl)piperazine] | 220.6 | 124 | 27400 |  | 
Fc1ccc(-c2cccc(N3CCNCC3)c2)c(OCCc2cccnc2)c1 [Compound 12k, 1-(4′-fluoro-2′-(2-(pyridin-3-yl)ethoxy)-[1,1′-biphenyl]-3-yl)piperazine] |  | 3120 |  |  | 
Fc1ccc(-c2ccnc(N3CCNCC3)c2)c(OCCc2cccnc2)c1 [Compound 12l, 1-(4-(4-fluoro-2-(2-(pyridin-3-yl)ethoxy)phenyl)pyridin-2-yl)piperazine] | 73 | 23.4 | 1710 |  | 
Cc1n[nH]c(C)c1CCOc1cccnc1-c1cccc(N2CCNCC2)c1 [Compound 12m, 1-(3-(3-(2-(3,5-dimethyl-1H-pyrazol-4-yl)ethoxy)pyridin-2-yl)phenyl)piperazine] |  | 12500 |  |  | 
Cc1n[nH]c(C)c1CCOc1ccccc1-c1ccnc(N2CCNCC2)c1 [Compound 12n, 1-(4-(2-(2-(3,5-dimethyl-1H-pyrazol-4-yl)ethoxy)phenyl)pyridin-2-yl)piperazine] | 65.7 | 604 | 39700 |  | 
Cc1n[nH]c(C)c1CCOc1cccnc1-c1ccnc(N2CCNCC2)c1 [Compound 12o] |  | 3120 |  |  | 
Cc1nn(C)c(C)c1CCOc1ccccc1-c1cc(N2CCNCC2)ncn1 [Compound 16a, 4-(piperazin-1-yl)-6-(2-(2-(1,3,5-trimethyl-1H-pyrazol-4-yl)ethoxy)phenyl)pyrimidine] |  | 9390 |  |  | 
Cc1nn(C)c(C)c1CCOc1cc(F)ccc1-c1cc(N2CCNCC2)ncn1 [Compound 16b, 4-(4-fluoro-2-(2-(1,3,5-trimethyl-1H-pyrazol-4-yl)ethoxy)phenyl)-6-(piperazin-1-yl)pyrimidine] | 164.4 | 168 | 27600 | 164 | 
c1cncc(CCOc2ccccc2-c2cc(N3CCNCC3)ncn2)c1 [Compound 16c, 4-(piperazin-1-yl)-6-(2-(2-(pyridine-3-yl)ethoxy)phenyl)pyrimidine] |  | > 40000 |  |  | 
Fc1ccc(-c2cc(N3CCNCC3)ncn2)c(OCCc2cccnc2)c1 [Compound 16d, 4-(4-fluoro-2-(2-(pyridine-3-yl)ethoxy)phenyl)-6-(piperazin-1-yl)pyrimidine] |  | 3390 |  |  | 
Cc1n[nH]c(C)c1CCOc1cc(F)ccc1-c1cc(N2CCNCC2)ncn1 [Compound 16e, 4-(2-(2-(3,5-dimethyl-1H-pyrazol-4-yl)ethoxy)-4-fluorophenyl)-6-(piperazin-1-yl)pyrimidine] |  | 5070 |  |  | 
Cc1n[nH]c(C)c1CCOc1ccccc1-c1cc(N2CCNCC2)ncn1 [Compound 16f, 4-(2-(2-(3,5-dimethyl-1H-pyrazol-4-yl)ethoxy)phenyl)-6-(piperazin-1-yl)pyrimidine] |  | 14000 |  |  | 
CN(C)CCOc1cccc(-c2ncccc2OCCc2cccnc2)c1 [Compound 26d, N,N-dimethyl-2-(3-(3-(2-(pyridin-3-yl)ethoxy)pyridin-2-yl)phenoxy)ethan-1-amine] |  |  |  |  | 14800
CN(C)CCOc1cccc(-c2ccccc2OCCc2cccnc2)c1 [Compound 26e, N,N-dimethyl-2-((2′-(2-(pyridin-3-yl)ethoxy)-[1,1′-biphenyl]-3-yl)oxy)ethan-1-amine] |  |  |  |  | 12800
Cc1n[nH]c(C)c1CCOc1cccnc1-c1cccc(OCCN(C)C)c1 [Compound 26g, 2-(3-(3-(2-(3,5-dimethyl-1H-pyrazol-4-yl)ethoxy)pyridin-2-yl)phenoxy)-N,N-dimethylethan-1-amine] |  |  |  |  | 19400
Cc1n[nH]c(C)c1CCOc1ccccc1-c1cccc(OCCN(C)C)c1 [Compound 26h, 2-((2′-(2-(3,5-dimethyl-1H-pyrazol-4-yl)ethoxy)-[1,1′-biphenyl]-3-yl)oxy)-N,N-dimethylethan-1-amine] |  |  |  |  | 1560
Cc1nn(C)c(C)c1CCOc1ccc2ccccc2c1-c1cccc(OCCN(C)C)c1 [Compound 30b, N,N-dimethyl-2-(3-(2-(2-(1,3,5-trimethyl-1H-pyrazol-4-yl)ethoxy)naphthalen-1-yl)phenoxy)ethan-1-amine] |  |  |  |  | 19800
CN(C)CCOc1cccc(-c2c(OCCc3cccnc3)ccc3ccccc23)c1 [Compound 30d, N,N-dimethyl-2-(3-(2-(2-(pyridin-3-yl)ethoxy)naphthalen-1-yl)phenoxy)ethan-1-amine] |  |  |  |  | 7210
Cc1n[nH]c(C)c1CCOc1ccc2ccccc2c1-c1ccnc(N2CCNCC2)c1 [Compound 30e, 1-(4-(2-(2-(3,5-dimethyl-1H-pyrazol-4-yl)ethoxy)naphthalen-1-yl)pyridin-2-yl)piperazine] |  |  |  |  | 2880
Cc1n[nH]c(C)c1CCOc1ccc2ccccc2c1-c1cccc(OCCN(C)C)c1 [Compound 30f, 2-(3-(2-(2-(3,5-dimethyl-1H-pyrazol-4-yl)ethoxy)naphthalen-1-yl)phenoxy)-N,N-dimethylethan-1-amine] |  |  |  |  | 25400
